Measured values from publication PMC5224920, “Assessing the mechanism and therapeutic potential of modulators of the human Mediator complex-associated protein kinases” (eLife, 2016).

Test system: 12 single or co-culture in vitro tissue models of primary cells
Assay: Culture/co-culture cell model panel, extracellular biomarkers (DiscoveRx); for CCL2/MCP-1: reference of the scale not given here; for CXCL8/IL-8: reference of the scale not given here; for CXCL9/MIG: reference of the scale not given here; for IL-1alpha: reference of the scale not given here; for M-CSF: reference of the scale not given here; for PBMC Cytotoxicity: reference of the scale not given here; for SRB: reference of the scale not given here; for sTNF-alpha: reference of the scale not given here
Assay type: cell-based, human
Conditions: for B cell Proliferation / PBMC Cytotoxicity / Secreted IgG / sIL-2 / sIL-6 / sIL-17A / sIL-17F / sTNF-alpha: BT
[1] = HDF3CGF stimulated fibroblasts, 1.00E4 nM
[2] = HDF3CGF stimulated fibroblasts, 1.11E3 nM
[3] = HDF3CGF stimulated fibroblasts, 1.23E2 nM
[4] = HDF3CGF stimulated fibroblasts, 1.37E1 nM
[5] = HDF3CGF stimulated fibroblasts, 3.33E3 nM
[6] = HDF3CGF stimulated fibroblasts, 3.70E2 nM
[7] = HDF3CGF stimulated fibroblasts, 4.12E1 nM

## Cc1n[nH]c2ncc(C(=O)N3CCC[C@H]3c3ccc(Cl)cc3)cc12 [CMPD4]
BENo, 3.70E2 nM
  tPA: -0.062
  uPA: -0.019
BENo, 4.12E1 nM
  CCL26/Eotaxin-3: 0.012
  CD54/ICAM-1: -0.077
  CD87/uPAR: -0.027
  CXCL8/IL-8: 0.020
  CXCL9/MIG: -0.004
  CXCL10/IP-10: -0.033
  CXCL11/I-TAC: -0.036
  EGFR: 0.00426
  HLA-DR: -0.016
  IL-1alpha: 0.010
  Keratin 8/18: -0.010
  MMP-1: -0.031
  MMP-9: -0.003
  PAI-I: -0.067
  SRB: 0.00253
  tPA: -0.061
  uPA: -0.015
BENo, 4.57E0 nM
  CCL26/Eotaxin-3: 0.029
  CD54/ICAM-1: -0.040
  CD87/uPAR: 0.028
  CXCL8/IL-8: 0.039
  CXCL9/MIG: 0.050
  CXCL10/IP-10: 0.057
  CXCL11/I-TAC: -0.035
  EGFR: 0.015
  HLA-DR: 0.068
  IL-1alpha: -0.00546
  Keratin 8/18: -0.020
  MMP-1: -0.009
  MMP-9: -0.020
  PAI-I: -0.00037
  SRB: 0.018
  tPA: 0.003
  uPA: -0.020
BF4T, 1.00E4 nM
  CCL2/MCP-1: -0.010
  CCL26/Eotaxin-3: -0.144
  CD54/ICAM-1: -0.092
  CD90: -0.00366
  CD106/VCAM-1: -0.026
  CXCL8/IL-8: 0.017
  IL-1alpha: -0.039
  Keratin 8/18: -0.020
  MMP-1: -0.016
  MMP-3: 0.014
  MMP-9: -0.031
  PAI-I: -0.059
  SRB: 0.004
  tPA: -0.022
  uPA: -0.009
BF4T, 1.11E3 nM
  CCL2/MCP-1: -0.045
  CCL26/Eotaxin-3: -0.209
  CD54/ICAM-1: -0.086
  CD90: -0.00131
  CD106/VCAM-1: -0.021
  CXCL8/IL-8: -0.056
  IL-1alpha: -0.038
  Keratin 8/18: 0.020
  MMP-1: -0.016
  MMP-3: -0.0065
  MMP-9: -0.011
  PAI-I: -0.00269
  SRB: 0.011
  tPA: 0.007
  uPA: -0.016
BF4T, 1.23E2 nM
  CCL2/MCP-1: -0.067
  CCL26/Eotaxin-3: -0.191
  CD54/ICAM-1: -0.058
  CD90: -0.00126
  CD106/VCAM-1: -0.012
  CXCL8/IL-8: -0.021
  IL-1alpha: -0.020
  Keratin 8/18: -0.022
  MMP-1: 0.00135
  MMP-3: -0.007
  MMP-9: -0.047
  PAI-I: -0.013
  SRB: 0.00469
  tPA: 0.032
  uPA: 0.00319
BF4T, 1.37E1 nM
  CCL2/MCP-1: 0.00746
  CCL26/Eotaxin-3: -0.134
  CD54/ICAM-1: -0.057
  CD90: -0.011
  CD106/VCAM-1: -0.028
  CXCL8/IL-8: -0.024
  IL-1alpha: -0.024
  Keratin 8/18: -0.00271
  MMP-1: -0.015
  MMP-3: 0.049
  MMP-9: -0.026
  PAI-I: -0.020
  SRB: 0.005
  tPA: 0.049
  uPA: 0.009
BF4T, 3.33E3 nM
  CCL2/MCP-1: -0.061
  CCL26/Eotaxin-3: -0.184
  CD54/ICAM-1: -0.074
  CD90: 0.011
  CD106/VCAM-1: 0.002
  CXCL8/IL-8: -0.042
  IL-1alpha: -0.055
  Keratin 8/18: -0.022
  MMP-1: -0.012
  MMP-3: -0.048
  MMP-9: -0.00425
  PAI-I: -0.026
  SRB: 0.006
  tPA: 0.015
  uPA: -0.019
BF4T, 3.70E2 nM
  CCL2/MCP-1: -0.039
  CCL26/Eotaxin-3: -0.177
  CD54/ICAM-1: -0.076
  CD90: -0.00567
  CD106/VCAM-1: -0.004
  CXCL8/IL-8: -0.042
  IL-1alpha: -0.090
  Keratin 8/18: -0.012
  MMP-1: -0.008
  MMP-3: 0.015
  MMP-9: -0.018
  PAI-I: 0.003
  SRB: 3.34e-5
  tPA: 0.027
  uPA: -0.022
BF4T, 4.12E1 nM
  CCL2/MCP-1: -0.019
  CCL26/Eotaxin-3: -0.203
  CD54/ICAM-1: -0.044
  CD90: 0.0044
  CD106/VCAM-1: -0.036
  CXCL8/IL-8: -0.031
  IL-1alpha: -0.038
  Keratin 8/18: 0.00849
  MMP-1: -0.002
  MMP-3: 0.027
  MMP-9: -0.011
  PAI-I: -0.009
  SRB: 0.000731
  tPA: 0.025
  uPA: -0.00027
BF4T, 4.57E0 nM
  CCL2/MCP-1: 0.041
  CCL26/Eotaxin-3: -0.086
  CD54/ICAM-1: -0.034
  CD90: -0.000153
  CD106/VCAM-1: -0.018
  CXCL8/IL-8: 0.024
  IL-1alpha: -0.020
  Keratin 8/18: -0.00266
  MMP-1: 0.000794
  MMP-3: 0.054
  MMP-9: -0.023
  PAI-I: 0.019
  SRB: -0.008
  tPA: 0.057
  uPA: -0.00538
1.00E4 nM
  B cell Proliferation: -0.013
  PBMC Cytotoxicity: -0.020
  Secreted IgG: -0.332
  sIL-2: 0.00561
  sIL-6: -0.027
  sIL-17A: 0.321
  sIL-17F: -0.397
  sTNF-alpha: 0.086
1.11E3 nM
  B cell Proliferation: 0.005
  PBMC Cytotoxicity: 0.008
  Secreted IgG: -0.271
  sIL-2: -0.010
  sIL-6: 0.011
  sIL-17A: 0.280
  sIL-17F: -0.402
  sTNF-alpha: 0.063
1.23E2 nM
  B cell Proliferation: 0.027
  PBMC Cytotoxicity: 0.018
  Secreted IgG: -0.256
  sIL-2: 0.014
  sIL-6: 0.030
  sIL-17A: 0.185
  sIL-17F: -0.282
  sTNF-alpha: 0.057
1.37E1 nM
  B cell Proliferation: -0.012
  PBMC Cytotoxicity: 0.011
  Secreted IgG: -0.141
  sIL-2: 0.014
  sIL-6: 0.027
  sIL-17A: 0.187
  sIL-17F: -0.0019
  sTNF-alpha: 0.046
3.33E3 nM
  B cell Proliferation: -0.018
  PBMC Cytotoxicity: -0.00188
  Secreted IgG: -0.298
  sIL-2: -0.066
  sIL-6: 0.010
  sIL-17A: 0.312
  sIL-17F: -0.374
  sTNF-alpha: 0.093
3.70E2 nM
  B cell Proliferation: -0.072
  PBMC Cytotoxicity: -0.003
  Secreted IgG: -0.278
  sIL-2: -0.005
  sIL-6: -0.000869
  sIL-17A: 0.240
  sIL-17F: -0.290
  sTNF-alpha: 0.057
4.12E1 nM
  B cell Proliferation: -0.040
  PBMC Cytotoxicity: -0.011
  Secreted IgG: -0.161
  sIL-2: 0.032
  sIL-6: 0.045
  sIL-17A: 0.263
  sIL-17F: -0.163
  sTNF-alpha: 0.025
4.57E0 nM
  B cell Proliferation: 0.00188
  PBMC Cytotoxicity: 0.009
  Secreted IgG: 0.00642
  sIL-2: 0.059
  sIL-6: -0.013
  sIL-17A: 0.029
  sIL-17F: -0.027
  sTNF-alpha: 0.044
[1]
  CCL2/MCP-1: -0.062
  CD54/ICAM-1: -0.066
  CD106/VCAM-1: 0.015
  CXCL8/IL-8: -0.071
  CXCL9/MIG: -0.035
  CXCL10/IP-10: 0.016
  CXCL11/I-TAC: -0.012
  Collagen I: 0.017
  Collagen III: 0.028
  EGFR: -0.096
  M-CSF: -0.031
  MMP-1: -0.059
  PAI-I: -0.088
  Proliferation_72hr: -0.248
  SRB: -0.00367
  TIMP-1: -0.111
  TIMP-2: -0.065
[2]
  CCL2/MCP-1: -0.100
  CD54/ICAM-1: -0.070
  CD106/VCAM-1: 0.050
  CXCL8/IL-8: -0.111
  CXCL9/MIG: -0.045
  CXCL10/IP-10: 0.029
  CXCL11/I-TAC: -0.023
  Collagen I: -0.003
  Collagen III: 0.052
  EGFR: -0.103
  M-CSF: -0.041
  MMP-1: -0.071
  PAI-I: -0.065
  Proliferation_72hr: -0.244
  SRB: -0.002
  TIMP-1: -0.078
  TIMP-2: 0.064
[3]
  CCL2/MCP-1: -0.076
  CD54/ICAM-1: -0.078
  CD106/VCAM-1: 0.069
  CXCL8/IL-8: -0.081
  CXCL9/MIG: -0.042
  CXCL10/IP-10: 0.037
  CXCL11/I-TAC: -0.032
  Collagen I: 0.025
  Collagen III: 0.068
  EGFR: -0.097
  M-CSF: -0.068
  MMP-1: -0.042
  PAI-I: -0.031
  Proliferation_72hr: -0.191
  SRB: 0.024
  TIMP-1: -0.068
  TIMP-2: 0.076
[4]
  CCL2/MCP-1: -0.043
  CD54/ICAM-1: -0.058
  CD106/VCAM-1: 0.069
  CXCL8/IL-8: -0.024
  CXCL9/MIG: -0.012
  CXCL10/IP-10: 0.038
  CXCL11/I-TAC: -0.002
  Collagen I: 0.048
  Collagen III: 0.094
  EGFR: -0.067
  M-CSF: -0.052
  MMP-1: 0.006
  PAI-I: 0.00043
  Proliferation_72hr: -0.130
  SRB: 0.016
  TIMP-1: -0.033
  TIMP-2: 0.049
[5]
  CCL2/MCP-1: -0.117
  CD54/ICAM-1: -0.064
  CD106/VCAM-1: 0.050
  CXCL8/IL-8: -0.103
  CXCL9/MIG: -0.054
  CXCL10/IP-10: 0.032
  CXCL11/I-TAC: -0.022
  Collagen I: 0.006
  Collagen III: 0.051
  EGFR: -0.111
  M-CSF: -0.031
  MMP-1: -0.057
  PAI-I: -0.062
  Proliferation_72hr: -0.194
  SRB: -0.008
  TIMP-1: -0.075
  TIMP-2: -0.041
[6]
  CCL2/MCP-1: -0.066
  CD54/ICAM-1: -0.075
  CD106/VCAM-1: 0.067
  CXCL8/IL-8: -0.100
  CXCL9/MIG: -0.034
  CXCL10/IP-10: 0.040
  CXCL11/I-TAC: -0.017
  Collagen I: 0.018
  Collagen III: 0.066
  EGFR: -0.123
  M-CSF: -0.056
  MMP-1: -0.053
  PAI-I: -0.013
  Proliferation_72hr: -0.187
  SRB: 0.021
  TIMP-1: -0.069
  TIMP-2: 0.123
[7]
  CCL2/MCP-1: -0.141
  CD54/ICAM-1: -0.066
  CD106/VCAM-1: 0.066
  CXCL8/IL-8: -0.049
